Reference: publication PMC6099588

Experiments:
[1] = tested on: HCVcc (Jc1/JFH genotype 2a); type: cell-based, hepatitis C virus
in vitro = settings: human, CC50, Huh-7.5 cells, MTS assay, 72 h
HCVpp [2] = settings: 50 μM, added to HEK-293T producer cells; luciferase in infected Huh-7.5 cells
influenza A virus = settings: cited from earlier work; for antiviral activity against influenza A virus: among compounds 1–9
[3] = tested on: HCV replication (Huh7-J17 replicon cell line); assay: HCV replicon luciferase assay in Huh7-J17 cells; settings: 72 h; for effect on HCV replication process (luciferase activity): Huh7-J17 replicon cells, different doses
[4] = MTS cytotoxicity alongside the Huh7-J20 SEAP assay; settings: human, Huh7-J20 cells
HCVcc = HCVcc dose-response SEAP reporter assay in Huh7-J20 cells; settings: for IC50: Hepatitis C virus, Huh7-J20, 72 h; for selectivity index (SI), CC50/IC50 ratio: Huh7-J20 cells, HCVcc
HCV E2 glycoprotein = assay: Western blot of E2 glycoprotein accumulation in transfected HEK293T cells; settings: anti-E2 MAb AP33, 48 h post transfection
[5] = tested on: classical swine fever virus; settings: cited from earlier work
HCVpp [6] = assay: microbe, parasite or virus in culture; settings: Hepatitis C virus, read-out: inhibition of infection (HCVpp)

CC(=O)O[C@H]1[C@H](C)O[C@H](OC[C@H]2O[C@@H](n3ccc(=O)[nH]c3=O)[C@@H]3OC(C)(C)O[C@@H]32)C[C@@H]1O[Si](C)(C)C(C)(C)C [Compound 1]
anti-HCV activity (reduction of pseudoplaques) [1]: no obvious anti-HCV activity
CC50 (in vitro): 85 µM

CC(=O)O[C@H]1[C@H](C)O[C@H](OC[C@H]2O[C@@H](n3ccc(=O)n(C(=O)c4ccccc4)c3=O)[C@@H]3OC(C)(C)O[C@@H]32)C[C@@H]1O[Si](C)(C)C(C)(C)C [Compound 2]
anti-HCV activity (reduction of pseudoplaques) [1]: high antiviral activity
reduction of HCVpp production and/or infectivity relative to DMSO control (HCVpp [2]): about 80%
antiviral activity against influenza A virus (influenza A virus): most active
CC50 (in vitro): 119 µM
effect on HCV replication process (luciferase activity) [3]: no effect on HCV replication process
CC50 [4]: 113 µM
IC50 (HCVcc): 8.9 µM
selectivity index (SI), CC50/IC50 ratio (HCVcc): 12.7
accumulation of E2 glycoprotein in HEK293T cells (HCV E2 glycoprotein): no change in the accumulation

CC1(C)O[C@@H]2[C@H](O1)[C@@H](CO[C@@H]1C[C@@H](OCc3ccccc3)[C@H](OCc3ccccc3)[C@@H](COCc3ccccc3)O1)O[C@H]2n1ccc(=O)[nH]c1=O [Compound 3]
anti-HCV activity (reduction of pseudoplaques) [1]: minor anti-HCV activity
CC50 (in vitro): 89 µM

CC1(C)O[C@@H]2[C@H](O1)[C@@H](CO[C@@H]1C[C@@H](OCc3ccccc3)[C@H](OCc3ccccc3)[C@@H](COCc3ccccc3)O1)O[C@H]2n1ccc(=O)n(C(=O)c2ccccc2)c1=O [Compound 4]
anti-HCV activity (reduction of pseudoplaques) [1]: high antiviral activity
reduction of HCVpp production and/or infectivity relative to DMSO control (HCVpp [2]): about 80%
antiviral activity against influenza A virus (influenza A virus): most active
CC50 (in vitro): 151 µM
effect on HCV replication process (luciferase activity) [3]: no effect on HCV replication process
CC50 [4]: 142 µM
IC50 (HCVcc): 2.1 µM
selectivity index (SI), CC50/IC50 ratio (HCVcc): 67.6
accumulation of E2 glycoprotein in HEK293T cells (HCV E2 glycoprotein): no change in the accumulation

CC1(C)O[C@@H]2[C@H](O1)[C@@H](CO[C@@H]1C[C@@H](OCc3ccccc3)[C@H](OCc3ccccc3)[C@@H](CO[Si](C)(C)C(C)(C)C)O1)O[C@H]2n1ccc(=O)[nH]c1=O [Compound 5]
anti-HCV activity (reduction of pseudoplaques) [1]: no obvious anti-HCV activity
CC50 (in vitro): 83 µM

CC(=O)OC[C@H]1O[C@H](OC[C@H]2O[C@@H](n3ccc(=O)[nH]c3=O)[C@@H]3OC(C)(C)O[C@@H]32)C[C@@H](OC(C)=O)[C@@H]1OC(C)=O [Compound 6]
anti-HCV activity (reduction of pseudoplaques) [1]: no obvious anti-HCV activity
CC50 (in vitro): 210 µM

CC(=O)OC[C@H]1O[C@H](OC[C@H]2O[C@@H](n3ccc(=O)n(Cc4ccccc4)c3=O)[C@@H]3OC(C)(C)O[C@@H]32)C[C@@H](OC(C)=O)[C@@H]1OC(C)=O [Compound 8]
anti-HCV activity (reduction of pseudoplaques) [1]: minor anti-HCV activity
CC50 (in vitro): 223 µM

O=c1ccn([C@@H]2O[C@H](CO[C@@H]3C[C@@H](O)[C@H](O)[C@@H](CO)O3)[C@@H](O)[C@H]2O)c(=O)[nH]1 [Compound 9]
anti-HCV activity (reduction of pseudoplaques) [1]: minor anti-HCV activity
CC50 (in vitro): 245 µM

CC1(C)O[C@@H]2[C@H](O1)[C@@H](CO[C@@H]1C[C@@H](OCc3ccccc3)[C@H](OCc3ccccc3)[C@@H](CO[Si](C)(C)C(C)(C)C)O1)O[C@H]2n1ccc(=O)n(C(=O)c2ccccc2)c1=O [IW3]
ability to inhibit influenza A virus (influenza A virus): most active
ability to inhibit classical swine fever virus [5]: most active

CC1(C)O[C@@H]2[C@H](O1)[C@@H](CO[C@@H]1C[C@@H](OCc3ccccc3)[C@H](OCc3ccccc3)[C@@H](CO)O1)O[C@H]2n1ccc(=O)n(C(=O)c2ccccc2)c1=O [IW7]
ability to inhibit influenza A virus (influenza A virus): most active
ability to inhibit classical swine fever virus [5]: most active

CC(C)OC(=O)[C@H](C)N[P@](=O)(OC[C@H]1O[C@@H](n2ccc(=O)[nH]c2=O)[C@](C)(F)[C@@H]1O)Oc1ccccc1 [Sofosbuvir, reference compound]
IC50 ([3]; Hepatitis C virus): 0.028 µM
IC50 (HCVcc): 0.26 µM
selectivity index (SI), CC50/IC50 ratio (HCVcc): about 120

CC(=O)N[C@H]1[C@@H](O[C@@H]2O[C@H](C[C@@H](O)[C@H]3O[C@@H](n4ccc(=O)[nH]c4=O)[C@H](O)[C@@H]3O)[C@H](O)[C@H](O)[C@H]2NC(=O)/C=C/CCCCCCCCCC(C)C)O[C@H](CO)[C@@H](O)[C@@H]1O [Tunicamycin]
inhibition at 5 µM (HCVpp [6]): > 80%
